Measured values reported in PubChem BioAssay AID179 (DTP/NCI, 2004).
Where “and” joins values, the source holds several entries; their conditions need not be identical. Identical values can stand only once. Calls of active or inactive are those of the source.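 The calls were made as follows: active = compounds giving half or more protection of infected cells from virus-caused growth loss, again on retest; inactive = the rest.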 Where a SMILES comes first, the peptide text is derived from it. [ ]: non-standard residue; d: D form. Phe(4-Cl) = N[CH](Cc1ccc(Cl)cc1)C(=O)O; 3Pal = N[CH](Cc1cccnc1)C(=O)O

Test system: CEM cells HIV-1 protection, formazan growth assay
Assay: NCI AIDS Antiviral Assay
Settings: for IC50: measured here: growth of uninfected CEM cells
Summary of the method: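 Soluble formazan readout of cell growth; CEM cells ± HIV-1; 5 drug concs. ≥50% protection → retest; ≥50% again = moderately active; reproducible 100% = confirmed active.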

Row | Compound | EC50 | IC50 | outcome
1 | COC(=O)c1cc(C(=CCC[C@H]2CC[C@@]3(C)[C@@H](CC[C@H]4[C@@H]3CC[C@]3(C)[C@@H](C(C)CCCC(C)C)CC[C@@H]43)C2)c2cc(F)c(OC)c(C(=O)OC)c2)cc(F)c1OC (some centres undefined) | > 200 µM | > 200 µM | 
2 | OC1COc2c3ccccc3nn2C1 (centres undefined) | > 1320 µM | 871 µM | 
3 | CC(=O)O[C@]12CCCCCC1C1(O)C(O)CCC[C@H]12 (some centres undefined) | > 200 µM | > 200 µM | 
4 | O=C(CSC(=S)N1CCOCC1)Nc1nc2c(s1)CCCC2 | > 72.4 µM | 61.7 µM | 
5 | CCOc1cnc([C@H]2CCC3[C@@H]4CC=C5C[C@@H](OC(C)=O)CC[C@]5(C)C4CC[C@@]32C)s1 (some centres undefined) | > 21.4 µM | > 21.4 µM | 
6 | CC(=O)NC(C=O)C(O[C@H](C)C(=O)NC(C)C(=O)NC(CCC(N)=O)C(=O)OCc1ccccc1)C(O)C(O)COC(=O)CCCCCNc1cccc2[nH]c3ccccc3c(=O)c12 (some centres undefined) | > 204 µM | 126 µM | 
7 | Cc1n[nH]c(=O)n1/N=C/c1cccnc1 |  |  | inactive
8 | CCOC(=O)N(NC(=O)NC(C)C)c1ccccc1 | > 200 µM | > 200 µM | 
9 | CO/N=C(\C([O-])=N\[n+]1cnn(CC(=O)OC(C)(C)C)c1)c1csc(NC(c2ccccc2)(c2ccccc2)c2ccccc2)n1 | > 200 µM | 37.2 µM | 
10 | COc1ccc(C(=C2C=CC=C2)c2ccc(OC)cc2)cc1 | > 200 µM | 52.5 µM | 
11 | CC(C)OP(=O)(OC(C)C)C([CH2][Sn]([CH3])([CH3])[Br])P(=O)(OC(C)C)OC(C)C | > 200 µM | 8.71 µM | 
12 | O=C(CCc1cc(-c2ccco2)n(-c2ccc([N+](=O)[O-])cc2[N+](=O)[O-])n1)Nc1ccccc1 | > 41.7 µM | > 41.7 µM | 
13 | O=c1oc2ccccc2c2nc3cc(Cl)c(F)cc3cc12 | > 25.1 µM | > 25.1 µM | 
14 | FC(F)(F)P1C2C=CC(CC2)C1(F)F (centres undefined) | > 251 µM | > 251 µM | 
15 | [Pt].c1ccc([PH+](CC[PH+](CC[PH+](c2ccccc2)c2ccccc2)c2ccccc2)CC[PH+](c2ccccc2)c2ccccc2)cc1 (centres undefined) | > 15.8 µM | 12.6 µM | 
16 | CC(=O)C(CCC(=O)O)(CCC(=O)O)C(C)C | > 1020 µM | > 1020 µM | 
17 | FC(F)(F)c1cc(C2SCc3nc4ccccc4n32)cc(C(F)(F)F)c1 (centres undefined) | > 41.7 µM | 7.08 µM | 
18 | OC1(C23CC4CC(CC(C4)C2)C3)CSCC1(O)C12CC3CC(CC(C3)C1)C2 (centres undefined) | > 7.08 µM | > 7.08 µM | 
19 | O=C1CCN(CCC(F)(F)C(F)(F)C(F)(F)C(F)(F)F)C(=S)N1 | > 26.3 µM | > 26.3 µM | 
20 | COc1ccccc1C(C(=O)NC1CN2CCC1CC2)c1ccsc1 (centres undefined) | > 200 µM | 151 µM | 
21 | C[C@H](OCc1ccccc1)C(=O)N1CCS(=O)(=O)N2CCC[C@@H]2C1=O | > 490 µM | > 490 µM | 

Row | Compound | EC50 | IC50 | outcome
22 | CN(C)CCSc1nnc(-c2cccs2)c2ccccc12 | > 794 µM | 40.7 µM | 
23 | CSc1c(C)n([O-])c2cc(Cl)c(Cl)cc2[n+]1=O | > 100 µM | 2.82 µM | 
24 | CNC(=O)N(CCCCC(NC(C)=O)C(=O)NCc1ccccc1)Cc1ccccc1 (centres undefined) | > 589 µM | > 589 µM | 
25 | CC(=NC1C2CC3CC(C2)CC1C3)c1ccc(N=NC2C(=O)NN=C2C)cc1 (centres undefined) | > 10 µM | > 10 µM | 
26 | COc1ccc(-c2cc(O)c3nc4ccccc4n3c2)cc1 | > 200 µM | > 200 µM | 
27 | CCOC(=O)/C(=C\c1ccc(CO)o1)P(=O)(OCC)OCC | > 200 µM | 30.9 µM | 
28 | CC(O)c1ccc[n+](Cc2ccccc2)c1 (centres undefined) | > 1000 µM | 776 µM | 
29 | CC(C)(C)OC(=O)NCC(=O)NC1CC=CCC1NC(=O)CNC(=O)OC(C)(C)C (centres undefined) | > 200 µM | > 200 µM | 
30 | COc1cccc2c1OC(c1ccc(C#N)cc1)C([N+](=O)[O-])=C2 (centres undefined) | > 200 µM | 1.58 µM | 
31 | O=C(OCC1CC(C2(O)CCCCC2)C(=O)O1)c1ccccc1 (centres undefined) | > 200 µM | > 200 µM | 
32 | O=[N+]([O-])c1ccc(C2NC3=C(CCCC3)N2)cc1 | > 40.7 µM | > 40.7 µM | 
33 | Cc1cccc(NC(=O)/C(=N\NC(C)(C)C)C2NC(=S)NC2=O)c1C (centres undefined) | > 72.4 µM | > 72.4 µM | 
34 | COc1ccc(NC(=O)C(=O)Cc2nc3ccc([N+](=O)[O-])cc3[nH]c2=O)c(OC)c1 | > 17.4 µM | > 17.4 µM | 
35 | CN1c2ccccc2C2=C(c3ccccc3)CC[C@@H](C(=O)N3C4CC5CC[C@@]4(CS3(=O)=O)C5(C)C)[C@@H]21 (some centres undefined) | > 200 µM | 129 µM | 
36 | Oc1ccc(Cc2cc(Cc3ccc(O)cc3)cc(Cc3ccc(O)cc3)c2)cc1 | 93.3 µM | > 100 µM | 
37 | NS(=O)(=O)c1ccc(NC(=O)c2cccc3cc4ccccc4nc23)cc1 | > 79.4 µM | 4.79 µM | 
38 | CCOC(=O)/C(=C/c1ccco1)P(=O)(OCC)OCC | > 832 µM | 490 µM | 
39 | O=c1[nH]c(=S)[nH]c2c1CN(CCCN1CCOCC1)CN2 | > 794 µM | 49 µM | 
40 | CC(=O)NC(Cc1ccc(Cl)cc1)C(=O)NC(Cc1ccc(Cl)cc1)C(=O)NC(Cc1cccnc1)C(=O)NC(CO)C(=O)NC(Cc1ccc(O)cc1)C(=O)NC(CCCN=C(N)N)C(=O)NC(CC(C)C)C(=O)NC(CCCN=C(N)N)C(=O)N1CCCC1C(=O)NC(C)C(=O)O (centres undefined) (Ac-[Phe(4-Cl)][Phe(4-Cl)][3Pal]SYRLRPA-OH; configuration not given here) | > 17 µM | > 17 µM | 
41 | O=C(/C=C/c1ccc(OCC(=O)N2CCN(c3ccccc3)CC2)cc1)c1ccc(Cl)cc1 | > 29.5 µM | > 29.5 µM | 
42 | Oc1ccc(C(O)(c2ccccc2)c2ccccc2)cc1 | > 67.6 µM | 41.7 µM | 

Row | Compound | EC50 | IC50 | outcome
43 | COC(=O)c1cc(C(=CCC(=O)N[C@H]2CC[C@@]3(C)[C@@H](CC[C@@H]4[C@@H]3CC[C@]3(C)[C@@H]([C@H](C)CCCC(C)C)CC[C@@H]43)C2)c2cc(Cl)c(OC)c(C(=O)OC)c2)cc(Cl)c1OC | > 200 µM | > 200 µM | 
44 | C=C1CN(S(=O)(=O)c2ccc(C)cc2)CCN(C(=O)OC(C)(C)C)CCN(S(=O)(=O)c2ccc(C)cc2)C1 | > 200 µM | 20 µM | 
45 | O=C1C(=O)N(c2ccc(Cl)cc2)C(=O)C(=O)C1c1nc2ccccc2s1 | > 18.6 µM | > 18.6 µM | 
46 | NC(N)=NNC(=O)CCCCCCCC(=O)NN=C(N)N | 537 µM | 676 µM | 
47 | O=C(/C=C/c1ccccc1O)C(c1ccccc1)c1ccccc1 | > 12 µM | > 12 µM | 
48 | CCOC(=O)c1cn(CC)c2cc3c(cc2c1=O)SCS3 |  |  | inactive
49 | O=C(Cc1nc2ccc(C(=O)c3ccccc3)cc2[nH]c1=O)C(=O)Nc1ccc(Br)cc1 | > 14.8 µM | > 14.8 µM | 
50 | CO[C@@H]1O[C@H](C(=O)c2ccccc2)[C@H]2OC(C)(C)O[C@@H]12 | > 200 µM | 45.7 µM | 
51 | Cc1nnc(N=Nc2c(O)[nH]c3ccccc23)n1N | > 70.8 µM | 58.9 µM | 
52 | CCC1C(=O)OC2OC(c3ccccc3)(c3ccccc3)NC21 (centres undefined) | > 200 µM | > 100 µM | 
53 | Cc1nnc(NS(=O)(=O)c2ccc(N=Nc3cc4ccccc4c(C(=O)O)c3O)cc2)s1 | > 200 µM | 22.9 µM | 
54 | Cc1ccc(S(=O)(=O)N2CCCC2C(=O)O[C@H]2CC[C@H]3CC=C[C@H]32)cc1 (some centres undefined) | > 200 µM | 20.9 µM | 
55 | O=C(O)c1cnccc1-c1cc(=O)[nH]n1-c1ccccc1 | > 200 µM | 30.2 µM | 
56 | O=C(Cc1ccccc1)NNc1nc(NNC(=O)c2ccncc2)nc(Nc2ccc(Cl)cc2)n1 | > 100 µM | > 100 µM | 
57 | O=C(c1ccccn1)c1nc(-c2ccc(Cl)c(Cl)c2)nc2ccc(Cl)cc12 |  |  | inactive
58 | O=C1CC(c2c[nH]c3ccccc23)C(=O)N1c1ccccc1 (centres undefined) |  |  | inactive
59 | CC(=O)OCCNc1n[nH]c(=O)c2cnccc12 | > 1000 µM | > 1000 µM | 
60 | COc1cc2c(cc1OC)CC(=O)c1cc(OC)c(OC)cc1/C=C\2 | > 12.6 µM | 7.59 µM | 
61 | O=C1NNC(=O)C2C3C=CC(O3)C12 (centres undefined) | > 200 µM | > 200 µM | 
62 | CC1NCCc2c1[nH]c1ccc(O)cc21 (centres undefined) |  |  | inactive
63 | CCOC(=O)C1=NN(c2ccccc2)C(=O)/C1=C\N1C(=O)/C(=C/c2cccc(O)c2)SC1=S | > 200 µM | 38.9 µM | 

Row | Compound | EC50 | IC50 | outcome
64 | Cc1cccc(NP2(=O)NCCCN2)c1 | 316 µM | 398 µM | 
65 | COC1C(=[N+]=[N-])C(=O)NC(=O)N1C1OC(COC(c2ccccc2)(c2ccccc2)c2ccccc2)C(O)C1O (centres undefined) | > 18.2 µM | > 18.2 µM | 
66 | CCOCCOC(=O)C1CCC(=O)N1CN(C(C)=O)c1cc(OC)ccc1OC (centres undefined) |  |  | inactive
67 | COC1=CC2(c3ccccc3)C(=CC1=O)CCN2C(=O)c1ccccc1 (centres undefined) |  |  | inactive
68 | CC(=O)O/N=C/c1ncccc1CO | > 490 µM | 389 µM | 
69 | O=C1/C(=C/c2ccc3c(c2)OCCO3)CCC/C1=C\c1ccc2c(c1)OCCO2 | > 6.92 µM | > 6.92 µM | 
70 | O=C(O)C(O)(c1ccccc1)c1ccsc1 (centres undefined) | > 200 µM | > 200 µM | 
71 | Nc1ccccc1/C=C1/Sc2cc[nH]c2C1=O | > 63.1 µM | > 63.1 µM | 
72 | Cn1c(=O)c2c(=O)c(=O)[nH][nH]c2n(C)c1=O | > 200 µM | > 200 µM | 
73 | CC(=O)OCC1OC(Nc2[nH]c(=O)n(C)c(=O)c2N=O)C(OC(C)=O)C(OC(C)=O)C1OC(C)=O (centres undefined) | > 200 µM | > 200 µM | 
74 | CCOC(OC1=C(C#N)CCCC1)C(CC)[Se]c1ccccc1 (centres undefined) | > 132 µM | 67.6 µM | 
75 | CCCOC(=O)Nc1ccc2c(c1)c1c3[nH]c(=O)c4cccn4c3ccc1n2CC | > 200 µM | > 200 µM | 
76 | COc1cc(/C=C/c2csnn2)cc(OC)c1OC | > 468 µM | 117 µM | 
77 | COc1nc(NC2OCC(O)C(O)C2O)cc(=O)n1C (centres undefined) |  |  | inactive
78 | CCN1CCC(O)(c2ccc(C)cc2)C(C(=O)c2ccc(C)cc2)C1 (centres undefined) | > 162 µM | 11.7 µM | 
79 | Nc1cc(OCc2ccccc2)c(OCc2ccccc2)cc1C=O | > 200 µM | 18.6 µM | 
80 | CC(=O)OCC1OC(n2c(C)c(C(C)=O)c(-c3ccco3)c(C#N)c2=S)C(OC(C)=O)C(OC(C)=O)C1OC(C)=O (centres undefined) | > 200 µM | 112 µM and 87.1 µM | 
81 | Cc1nc(N)nc(CCC(=O)Nc2cccc(C(F)(F)F)c2)c1-c1ccc(Cl)cc1 | > 302 µM | > 302 µM | 
